The term kcat denotes the maximal rate divided by the concentration of active sites. What is called Km is the substrate concentration at which the rate is half of its maximum. The term IC50 denotes the point on the concentration scale where inhibition reaches its midpoint.

Molecules are shown by their SMILES.

Here are results for 3 molecules from patent US9930893B2, “Inhibitors of DXP synthase and methods of use thereof” (The Johns Hopkins University, priority 2014, dated 2018).

Assay [1] deals with T1, E. coli DXP synthase (DXPS) (Escherichia coli, UniProt P77488).
T1 construct: made in house
T1 sequence (P77488 1-620): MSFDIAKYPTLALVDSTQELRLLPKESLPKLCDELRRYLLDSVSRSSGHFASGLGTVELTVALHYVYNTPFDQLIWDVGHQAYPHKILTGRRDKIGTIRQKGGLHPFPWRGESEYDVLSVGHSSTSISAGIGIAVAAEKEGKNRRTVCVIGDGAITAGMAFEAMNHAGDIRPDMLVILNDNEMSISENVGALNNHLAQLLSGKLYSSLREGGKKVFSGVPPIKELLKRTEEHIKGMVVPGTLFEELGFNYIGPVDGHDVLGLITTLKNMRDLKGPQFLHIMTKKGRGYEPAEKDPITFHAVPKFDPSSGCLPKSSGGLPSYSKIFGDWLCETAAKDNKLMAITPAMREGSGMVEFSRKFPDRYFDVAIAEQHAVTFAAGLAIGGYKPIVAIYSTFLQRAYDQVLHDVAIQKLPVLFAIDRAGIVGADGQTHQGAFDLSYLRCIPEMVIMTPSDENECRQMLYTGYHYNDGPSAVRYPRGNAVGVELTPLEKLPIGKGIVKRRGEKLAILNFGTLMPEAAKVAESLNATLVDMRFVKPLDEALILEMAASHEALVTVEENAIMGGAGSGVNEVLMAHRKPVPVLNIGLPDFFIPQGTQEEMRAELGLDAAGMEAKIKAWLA
The class given is biochemical. As to conditions: 10-20 mM pyruvate, pH 8.0, 10% DMSO, 37° C., average ± SEM. As to the method:
Reaction mixtures containing 100 mM HEPES, pH 8.0, 2 mM MgCl2, 5 mM NaCl, 1 mM ThDP, 1 mg/mL BSA, 10-20 mM pyruvate, 10% DMSO, 0.5 mM 5 mM nitroso substrate were pre-incubated at 37° C. for 5 min. […] Aliquots of enzymatic mixture were removed at various time intervals and quenched into an equal volume of cold methanol. Quenched mixtures were incubated on ice for 20 minutes. Precipitated proteins were removed by centrifugation, and the supernatant was analyzed by HPLC with UV detection using the following conditions: Flow rate=3 mL/min; Solvent A: 100 mM NH4OAc, pH 4.6; Solvent B: acetonitrile; Method: 0-100% B over 10 min. New products formed were extracted from the supernatant using ethyl acetate (3×). […] Products were subsequently characterized by mass spectrometry.
Reaction mixtures containing 100 mM HEPES, pH 8.0, 2 mM MgCl2, 5 mM NaCl, 1 mM ThDP, 1 mg/mL BSA, 10-20 mM pyruvate, 10% DMSO v/v, and 10-300 μM nitroso substrate were pre-incubated at 37° C. for 5 min. […] Substrate concentration as a function of time was determined from absorbance values using Beer's Law. Initial reaction rates were determined from the linear range of the reaction progress curve, usually within 1-3 min. Data analysis to determine kcat and Km for each alternative substrate was carried out using GraFit version 7 from Erithacus Software.

For a further assay, the system named is porcine PDH E1 subunit. The class given is biochemical. On the procedure:
Reaction mixtures containing 100 mM HEPES, pH 8.0, 2 mM MgCl2, 5 mM NaCl, 1 mM ThDP, 1 mg/mL BSA, 10-20 mM pyruvate, 10% DMSO v/v, and 10-300 μM nitroso substrate were pre-incubated at 37° C. for 5 min. Enzymatic reactions were initiated by addition of 0.5-2 μM DXP synthase (or 0.1 units/ml PDH) and monitored spectrophotometrically by measuring the rate of disappearance of the nitroso substrate at its corresponding λmax. Substrate concentration as a function of time was determined from absorbance values using Beer's Law. Initial reaction rates were determined from the linear range of the reaction progress curve, usually within 1-3 min. Data analysis to determine kcat and Km for each alternative substrate was carried out using GraFit version 7 from Erithacus Software.

For another assay, the target named is T2, DXP synthase (Escherichia coli, UniProt P77488).
T2 construct: made in house
T2 sequence (P77488 1-620): T1 sequence (P77488 1-620)
Nature of the assay: Inhibition of DXP formation by nitroso substrates (HPLC-based assay). The class given is biochemical, E. coli. As to conditions: 30 μM D-GAP, 80 μM pyruvate, 37° C.; average ± SEM. On the procedure: Enzyme reactions were initiated by addition of 0.1 μM DXP synthase. Aliquots (150 μL) of the enzymatic mixture were removed between 0.5 and 3 minutes and quenched into ice-cold methanol (150 μL). Precipitated protein was removed by centrifugation, and the supernatant was diluted in an equal volume of water. The nitroso substrate was removed by extraction into acetonitrile (3×), using a previously described freeze-extraction technique. ^[32] […] The derivatization mixtures were analyzed by HPLC as previously described. ^[19] To determine initial reaction rates in the presence of varying inhibitor concentration, the D,L-GAP and DXP hydrazone HPLC peak areas were measured, and the product concentration was determined as a percent of total peak area and plotted against reaction time. Initial rates GraFit version 7 from Erithacus Software was utilized to generate IC50 curves.

In the next assay the target is T3, E. coli DXP synthase (Escherichia coli, UniProt P77488).
T3 construct: made in house
Nature of the assay: biochemical. The conditions noted are these: Table 4; read-out: In vitro DXP syn IC50. As to the method: FIG. 4A, FIG. 4B, and FIG. 4C are charts showing competitive inhibition of DXP synthase by pentylacetylphosphonate (PentAP; FIG. 4A), hexylacetylphosphonate (HexAP; FIG. 4B), and octylacetyl phosphonate (OctAP; FIG. 4C). Inhibition assays were performed as previously described^[18], [40]). […] Pyruvate concentration was varied from 12-240 μM and acetylphosphonate concentration was varied: 0 μM (∘), 10 μM (●), 25 μM (□) and 50 μM (▪). Experiments were performed in triplicate, and data were subjected to non-linear regression analysis for Ki determinations (GraphPad Prism). Representative Lineweaver-Burk plots (GraFit from Erithacus Software) are shown for PentAP (FIG. 4A), HexAP (FIG. 4B) and OctAP (FIG. 4C) to illustrate the competitive inhibition mode with respect to pyruvate.
Inhibition of DXP synthase was measured as previously described^[13], [18]. […] Acetylphosphonate concentration was varied from 0 to 250 μM. […] Experiments were performed in triplicate for BAP and in duplicate for iPrAP
In order to evaluate the inhibitory activity of BnAP against DXP synthase, a continuous spectrophotometric coupled assay was used to measure formation of DXP by monitoring IspC consumption of NADPH (340 nm). ^[2] DXP synthase reaction mixtures (previously described) including BnAP (15, 30, and 60 μM), IspC (1 μM) and NADPH (100 μM) were pre-incubated at 37° C. for 5 minutes. Initial rates were measured after the reaction was initiated by the addition of DXP synthase. Inhibition of the coupling enzyme (IspC) by BnAP was not observed up to 1.5 mM. Experiments were performed in triplicate. Double reciprocal analysis of data was carried out using GraFit version 7 from Erithacus Software.

The target in a further assay is T4, yeast TK (Saccharomyces cerevisiae, UniProt P23254).
T4 sequence (P23254 1-680): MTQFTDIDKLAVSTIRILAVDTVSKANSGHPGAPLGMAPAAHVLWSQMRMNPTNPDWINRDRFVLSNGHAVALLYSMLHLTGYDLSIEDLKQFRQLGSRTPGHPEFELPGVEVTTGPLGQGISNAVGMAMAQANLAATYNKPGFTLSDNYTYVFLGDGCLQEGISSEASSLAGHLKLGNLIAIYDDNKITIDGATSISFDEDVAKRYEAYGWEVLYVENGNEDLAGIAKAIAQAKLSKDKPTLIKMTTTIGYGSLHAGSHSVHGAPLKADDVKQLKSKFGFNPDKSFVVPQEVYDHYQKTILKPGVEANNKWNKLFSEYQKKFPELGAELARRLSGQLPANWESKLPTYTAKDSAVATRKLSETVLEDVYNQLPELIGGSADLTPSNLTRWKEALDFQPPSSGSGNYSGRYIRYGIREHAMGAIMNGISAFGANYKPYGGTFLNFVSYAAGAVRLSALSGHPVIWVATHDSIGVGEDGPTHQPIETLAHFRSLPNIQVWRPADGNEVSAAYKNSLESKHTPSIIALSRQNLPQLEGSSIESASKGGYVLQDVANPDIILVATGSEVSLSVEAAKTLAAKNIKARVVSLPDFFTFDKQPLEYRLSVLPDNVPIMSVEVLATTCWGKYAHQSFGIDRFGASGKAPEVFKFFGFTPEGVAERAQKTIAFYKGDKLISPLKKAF
The conditions noted are these: ref [26]; cited from earlier work.

The test system of a further assay is E. coli BW25113. Nature of the assay: Antimicrobial activity against E. coli BW25113 grown in CAMHB. The class given is cell-based. As to conditions: 0.63 to 5 mM, 16 hours. On the procedure: FIG. 9 is a chart showing antimicrobial activity of acetylphosphonates against E. coli BW25113 grown in CAMHB. Standardized cell cultures (approximately ˜10^5 CFU mL^−1) were exposed to increasing concentrations of acetylphosphonate. Fractional growth was determined at 16 hours as a percentage of the growth of no drug control. BAP (●), PentAP (▪) and HexAP (▴) were varied from 0.31 to 5 mM. OctAP (▾) was varied from 0.63 to 5 mM, and BnAP (♦) was varied from 0.16 mM to 5 mM. Each data point is the average of 3 independent experiments and the error bars are standard error.
(§1) Standardized innocula of E. coli BW25113 (approximately ˜10^5 CFU mL^−1) were treated with varying concentrations of either MAP (blue) or EAP (orange) from 0.63 to 5 mM for 16 hours, and fractional growth was determined by comparison to a no drug control. The ΔtolC variant of BW25113 was also treated with varying concentrations of MAP (black) or EAP (green) from 0.63 to 5 mM for 16 hour, and fractional growth was determined by comparison to no drug controls. Experiments were performed in duplicate, and error bars represent standard deviation.

Assay [2] has as its system ΔtolC variant of E. coli BW25113. Nature of the assay: Antimicrobial activity against ΔtolC variant grown in CAMHB. As to conditions: 0.63 to 5 mM, 16 hour. The class given is cell-based. On the procedure: as §1

For the molecule `COc1ccc(CCOP(=O)([O-])C(C)=O)cc1.[Li+]` [Compound 4], the kcat in assay [1] (acceptor substrate turnover) amounted to 0.015 ± 0.0017 s⁻¹. For the same molecule, the Michaelis-Menten constant (Km) in assay [1] (acceptor substrate) was found to be 54 ± 13 µM; in the assay with porcine PDH E1 subunit (10-20 mM pyruvate, pH 8.0, 37° C., average ± SEM), 408 ± 60 µM. In the assay on porcine PDH E1 subunit (ratio porcine PDH E1 vs E. coli DXPS), the “Km^PDH/Km^DXPS” value turned out to be 7.5. Also, the IC50 at DXP synthase amounted to 844 ± 170 µM; on E. coli DXP synthase, 194 µM. In addition, on yeast TK, the “substrate usage by yeast TK” value is “not a substrate”.

On to `CCOP(=O)(O)C(C)=O` [EAP, ethyl acetylphosphonate], for which the “activity against E. coli BW25113” value in the assay with E. coli BW25113 is “inactive”. Moreover, the “activity against ΔtolC variant” value in assay [2] is “inactive”.

As to `COP(=O)(O)C(C)=O` [MAP, methyl acetylphosphonate], in the assay on E. coli BW25113, the “activity against E. coli BW25113” value was “inactive”. Also, the “activity against ΔtolC variant” value in assay [2] is “inactive”.
